Columns and labels:
NSCLC NCI-H460 = experiment: In vitro proliferation assay (sulphorodamine B); type: cell-based; settings: Homo sapiens, 72 h, mean ± S.E.M.
[1] = tested on: DOHH2 and TMD8 DLBCL cells; experiment: Gene Set Enrichment Analysis (GSEA) of gene expression profiles, ST7612AA1 300 nM 8 hrs; type: cell-based, human
[2] = tested on: Mantle cell lymphoma MAVER1; experiment: In vitro proliferation assay (MTT); type: cell-based; settings: Homo sapiens, 72 h, mean ± S.E.M.
Protocol: (§1) Anti-proliferative activity was first assessed on a panel of cell lines derived from solid tumors and hematological cancers and then on a large panel of cell lines derived from mature B-cell lymphomas. […] Lymphoma cells were seeded in 96-wells tissue culture plates in complete medium and were exposed to increasing concentrations of ST7612AA1 for 48 or 72 h; the anti-proliferative activity was assessed using 3-(4,5-dimethylthiazol-2-yl)-2,5-diphenyltetrazolium bromide (MTT). The drug potency was evaluated by means of the “ALLFIT” computer program and defined as IC50 (drug concentration required for 50% inhibition of cell survival).

GCB-DLBCL Karpas422 = experiment: In vitro proliferation assay (MTT); type: cell-based; settings: Homo sapiens, KARPAS-422, 72 h, mean ± S.E.M.
Protocol: as §1

[3] = tested on: Mantle cell lymphoma Jeko-1; experiment: In vitro proliferation assay (MTT); type: cell-based; settings: Homo sapiens, 72 h, mean ± S.E.M.
Protocol: as §1

[4] = tested on: Splenic marginal zone lymphoma K1718; experiment: In vitro proliferation assay (MTT); type: cell-based; settings: Homo sapiens, 72 h, mean ± S.E.M.
Protocol: as §1

GCB-DLBCL SUDHL-6 = experiment: In vitro proliferation assay (MTT); type: cell-based; settings: Homo sapiens, SU-DHL-6, 72 h, mean ± S.E.M.
Protocol: as §1

GCB-DLBCL VAL = experiment: In vitro proliferation assay (MTT); type: cell-based; settings: Homo sapiens, 72 h, mean ± S.E.M.
Protocol: as §1

[5] = tested on: Mantle cell lymphoma REC-1; experiment: In vitro proliferation assay (MTT); type: cell-based; settings: Homo sapiens, Rec1, 72 h, mean ± S.E.M.
Protocol: as §1

GCB-DLBCL SUDHL-4 = experiment: In vitro proliferation assay (MTT); type: cell-based; settings: Homo sapiens, SU-DHL-4, 72 h, mean ± S.E.M.
Protocol: as §1

ABC-DLBCL OCI-Ly10 = experiment: In vitro proliferation assay (MTT); type: cell-based; settings: Homo sapiens, 72 h, mean ± S.E.M.
Protocol: as §1

T-cell lymphoma HUT78 = experiment: In vitro proliferation assay (MTT); type: cell-based; settings: Homo sapiens, 72 h, mean ± S.E.M.
Protocol: as §1

[6] = tested on: Splenic marginal zone lymphoma VL51; experiment: In vitro proliferation assay (MTT); type: cell-based; settings: Homo sapiens, 72 h, mean ± S.E.M.
Protocol: as §1

[7] = tested on: Mantle cell lymphoma Granta-519; experiment: In vitro proliferation assay (MTT); type: cell-based; settings: Homo sapiens, 72 h, mean ± S.E.M.
Protocol: as §1

ABC-DLBCL TMD8 = experiment: In vitro proliferation assay (MTT); type: cell-based; settings: Homo sapiens, 72 h, mean ± S.E.M.
Protocol: as §1

[8] = C2.CP.CGP, down-regulated genes
[9] = C2.CP.KEGG, down-regulated genes
[10] = C2.CP.REACTOME, down-regulated genes
[11] = GSEA.C2.CP.BIOCARTA, up-regulated genes
[12] = GSEA.C2.CP.CGP, up-regulated genes
[13] = GSEA.C2.CP.KEGG, up-regulated genes
[14] = GSEA.C2.CP.REACTOME, up-regulated genes
[15] = GSEA.C3.TFT, in both sheets (down- and up-regulated)
[16] = SignatureDB, down-regulated genes
[17] = SignatureDB, up-regulated genes

## CC(=O)SCCCCC[C@H](NC(=O)[C@H]1CCC(=O)N1)C(=O)Nc1ccccc1 [ST7612AA1]
NSCLC NCI-H460
  IC50: 66 ± 10 nM
[1]; [8]
  NES GARY_CD5_TARGETS_DN: -2.075
  NES HELLER_HDAC_TARGETS_DN: -2.119
  NES MANALO_HYPOXIA_DN: -2.295
  NES PEART_HDAC_PROLIFERATION_CLUSTER_DN: -2.218
  NES PENG_GLUTAMINE_DEPRIVATION_DN: -2.059
  NES SCHLOSSER_MYC_TARGETS_AND_SERUM_RESPONSE_DN: -2.302
  NES SCHLOSSER_MYC_TARGETS_AND_SERUM_RESPONSE_UP: -2.093
  NES SCHLOSSER_MYC_TARGETS_REPRESSED_BY_SERUM: -2.287
  NES SCHUHMACHER_MYC_TARGETS_UP: -2.188
  NES ZHONG_RESPONSE_TO_AZACITIDINE_AND_TSA_DN: -2.061
[1]; [9]
  NES KEGG_AMINOACYL_TRNA_BIOSYNTHESIS: -2
  NES KEGG_BASE_EXCISION_REPAIR: -1.385
  NES KEGG_CELL_CYCLE: -1.433
  NES KEGG_N_GLYCAN_BIOSYNTHESIS: -1.4288
  NES KEGG_ONE_CARBON_POOL_BY_FOLATE: -1.545
  NES KEGG_PROTEASOME: -1.717
  NES KEGG_PYRIMIDINE_METABOLISM: -1.58
  NES KEGG_RENIN_ANGIOTENSIN_SYSTEM: -1.474
  NES KEGG_RNA_DEGRADATION: -1.656
  NES KEGG_SPLICEOSOME: -1.947
[1]; [10]
  NES REACTOME_ASSEMBLY_OF_THE_PRE_REPLICATIVE_COMPLEX: -1.875
  NES REACTOME_DEADENYLATION_DEPENDENT_MRNA_DECAY: -1.915
  NES REACTOME_METABOLISM_OF_NON_CODING_RNA: -2.068
  NES REACTOME_METABOLISM_OF_RNA: -1.941
  NES REACTOME_MITOCHONDRIAL_PROTEIN_IMPORT: -1.944
  NES REACTOME_MRNA_PROCESSING: -1.945
  NES REACTOME_MRNA_SPLICING: -2.002
  NES REACTOME_PROCESSING_OF_CAPPED_INTRON_CONTAINING_PRE_MRNA: -2.059
  NES REACTOME_REGULATION_OF_MITOTIC_CELL_CYCLE: -1.812
  NES REACTOME_TRNA_AMINOACYLATION: -1.958
[1]; [11]
  NES BIOCARTA_ARAP_PATHWAY: 1.7296
  NES BIOCARTA_CCR5_PATHWAY: 1.628
  NES BIOCARTA_COMP_PATHWAY: 1.713
[1]; [12]
  NES BERTUCCI_MEDULLARY_VS_DUCTAL_BREAST_CANCER_DN: 2.239
  NES CHEN_LVAD_SUPPORT_OF_FAILING_HEART_UP: 2.236
  NES DUTERTRE_ESTRADIOL_RESPONSE_24HR_DN: 2.118
  NES GALINDO_IMMUNE_RESPONSE_TO_ENTEROTOXIN: 2.132
  NES GAUSSMANN_MLL_AF4_FUSION_TARGETS_E_UP: 2.11
  NES HELLER_HDAC_TARGETS_SILENCED_BY_METHYLATION_UP: 2.6813
  NES HELLER_HDAC_TARGETS_UP: 2.622
  NES KINSEY_TARGETS_OF_EWSR1_FLII_FUSION_DN: 2.138
  NES PEART_HDAC_PROLIFERATION_CLUSTER_UP: 2.166
  NES ZHONG_RESPONSE_TO_AZACITIDINE_AND_TSA_UP: 2.29
[1]; [13]
  NES KEGG_ASTHMA: 1.8598
  NES KEGG_AXON_GUIDANCE: 1.813
  NES KEGG_CELL_ADHESION_MOLECULES_CAMS: 1.93
  NES KEGG_ENDOCYTOSIS: 1.748
  NES KEGG_EPITHELIAL_CELL_SIGNALING_IN_HELICOBACTER_PYLORI_INFECTION: 1.747
  NES KEGG_FOCAL_ADHESION: 1.8042
  NES KEGG_LEUKOCYTE_TRANSENDOTHELIAL_MIGRATION: 1.726
  NES KEGG_LYSOSOME: 1.886
  NES KEGG_SYSTEMIC_LUPUS_ERYTHEMATOSUS: 2.269
  NES KEGG_VIBRIO_CHOLERAE_INFECTION: 1.733
[1]; [14]
  NES REACTOME_AMYLOIDS: 2.248
  NES REACTOME_CELL_CELL_JUNCTION_ORGANIZATION: 1.864
  NES REACTOME_DEPOSITION_OF_NEW_CENPA_CONTAINING_NUCLEOSOMES_AT_THE_CENTROMERE: 1.861
  NES REACTOME_MEIOSIS: 1.9137
  NES REACTOME_MEIOTIC_RECOMBINATION: 2.082
  NES REACTOME_MEIOTIC_SYNAPSIS: 1.86
  NES REACTOME_PACKAGING_OF_TELOMERE_ENDS: 2.135
  NES REACTOME_RNA_POL_I_PROMOTER_OPENING: 2.137
  NES REACTOME_RNA_POL_I_TRANSCRIPTION: 1.892
  NES REACTOME_TELOMERE_MAINTENANCE: 1.906
[1]; [15]
  NES TTTNNANAGCYR_UNKNOWN: 1.939
  NES V$CEBP_Q2: 1.715
  NES V$CEBP_Q2_01: 1.7492
  NES V$CREBP1_01: 1.784
  NES V$E4BP4_01: 1.766
  NES V$GATA_Q6: 1.724
  NES V$HLF_01: 1.724
  NES V$MYOGENIN_Q6: 1.714
  NES V$OCT1_B: 1.782
  NES […]_UNKNOWN: 2.04
[1]; GSEA.C6, down-regulated genes
  NES CSR_EARLY_UP.V1_UP: -1.379
  NES EIF4E_UP: -1.468
  NES ERB2_UP.V1_DN: -1.443
  NES ESC_J1_UP_LATE.V1_DN: -1.204
  NES GCNP_SHH_UP_EARLY.V1_UP: -1.491
  NES GCNP_SHH_UP_LATE.V1_UP: -1.454
  NES MEK_UP.V1_DN: -1.169
  NES MYC_UP.V1_UP: -2.19
  NES VEGF_A_UP.V1_DN: -1.363
[1]; GSEA.C6, up-regulated genes
  NES BCAT.100_UP.V1_UP: 1.912
  NES CAHOY_NEURONAL: 1.833
  NES E2F3_UP.V1_UP: 1.833
  NES ERB2_UP.V1_UP: 2.065
  NES ESC_V6.5_UP_LATE.V1_UP: 1.857
  NES MEK_UP.V1_UP: 2.011
  NES P53_DN.V1_UP: 1.814
  NES RAF_UP.V1_UP: 1.891
  NES STK33_SKM_UP: 1.998
  NES STK33_UP: 1.832
[1]; [16]
  NES BLOOD_MODULE-3.7_UNDETERMINED: -2.014
  NES GLUTAMINE_STARVE_DOWN: -2.082
  NES HIF1ALPHA_1.5X_DOWN: -2.057
  NES MYC_CHIP_PET_EXPR_UP: -2.152
  NES MYC_OVEREXPRESSION_1.5X_UP: -2.439
  NES MYC_OVEREXPRESSION_2X_UP: -2.047
  NES MYELOMA_TACI_LOW_PLASMABLAST_GENE: -1.944
  NES NOTCH_T-ALL_UP_PALOMERO: -2.039
  NES PROLIFERATION_NODE1640: -2.024
  NES RAPAMYCIN_BJAB_DOWN: -1.887
[1]; [17]
  NES BLOOD_MODULE-1.2_PLATELETS: 0.6607
  NES BLOOD_MODULE-3.2_INFLAMMATION-1: 0.6587
  NES CNS_PNS_NODE1663: 0.6849
  NES HIF1ALPHA_1.5X_UP: 0.6544
  NES HRAS_OVEREXPRESSION_4X_UP: 0.6606
  NES JAK2_DOWNREGULATED_PMBL: 0.6252
  NES KRAS_UP: 0.6774
  NES NORMAL_MESENCHYMAL-1_NODE1643: 0.6887
  NES RETICULOCYTE_LARGE: 0.7092
  NES SERUM_RESPONSE_FB_DOWN: 0.6176
[2]
  IC50: 390 nM
GCB-DLBCL Karpas422
  IC50: 2660 nM
[3]
  IC50: 250 ± 10 nM
[4]
  IC50: 100 ± 10 nM
GCB-DLBCL SUDHL-6
  IC50: 630 nM
GCB-DLBCL VAL
  IC50: 2360 nM
[5]
  IC50: 550 nM
GCB-DLBCL SUDHL-4
  IC50: 980 nM
ABC-DLBCL OCI-Ly10
  IC50: 260 nM
T-cell lymphoma HUT78
  IC50: 480 ± 20 nM
[6]
  IC50: 120 nM
[7]
  IC50: 470 nM
ABC-DLBCL TMD8
  IC50: 100 ± 30 nM

Source: PMC4467398, “Preclinical antitumor activity of ST7612AA1: a new oral thiol-based histone deacetylase (HDAC) inhibitor” (Oncotarget, 2014)
